Data published in ChEMBL document CHEMBL4725270, “Chloroquine fumardiamides as novel quorum sensing inhibitors” (2020).
Active and inactive are the calls of the source. No cut-off for these calls is given here.

What was measured:
[1] = tested on: Chromobacterium violaceum; assay: Bactericidal activity against Chromobacterium violaceum ATCC 31532 at 400 uM by resazurin dye based assay relative to control; type: functional
[2] = tested on: Chromobacterium violaceum; assay: Inhibition of quorum sensing system in Chromobacterium violaceum ATCC 31532 assessed as reduction in violacein production at 400 uM relative to control
[3] = tested on: Chromobacterium violaceum; assay: Inhibition of quorum sensing in violacein-negative Chromobacterium violaceum CV026 mini-Tn5 mutant assessed as quorum quenching by measuring violacein production at 400 uM in presence of C6-HSL relative to control; design: scale not given: the % may be the effect or the level left
[4] = tested on: Chromobacterium violaceum; assay: Inhibition of quorum sensing in Chromobacterium violaceum ATCC 31532 assessed as reduction in violacein production at 400 uM relative to control
[5] = tested on: Chromobacterium violaceum; assay: Bactericidal activity against violacein-negative Chromobacterium violaceum CV026 mini-Tn5 mutant at 400 uM by resazurin dye based assay relative to control; type: functional
[6] = tested on: Chromobacterium violaceum; assay: Bactericidal activity against Chromobacterium violaceum ATCC 31532 assessed as reduction in cell viability at 400 uM by resazurin dye based assay relative to control
[7] = tested on: Chromobacterium violaceum; assay: Inhibition of quorum sensing in violacein-negative Chromobacterium violaceum CV026 mini-Tn5 mutant assessed as quorum quenching by measuring violacein production at 40 uM in presence of C6-HSL relative to control; design: scale not given: the % may be the effect or the level left
[8] = tested on: Chromobacterium violaceum; assay: Inhibition of quorum sensing in Chromobacterium violaceum ATCC 31532 assessed as reduction in violacein production at 40 uM relative to control
[9] = tested on: Chromobacterium violaceum; assay: Inhibition of quorum sensing in Chromobacterium violaceum ATCC 31532 assessed as quorum quenching by measuring violacein production at 40 uM in presence of C6-HSL

| Compound | Activity [1] | inhibition [2] | Activity [3] | inhibition [4] | Activity [5] | Activity [6] | Activity [7] | inhibition [8] | Activity [9] |
| --- | --- | --- | --- | --- | --- | --- | --- | --- | --- |
| O=C(/C=C/C(=O)Nc1cccc(Cl)c1)NCCCCNc1cc(C(F)(F)F)nc2c(C(F)(F)F)cccc12 | 22.3% | 22.3% |  |  |  |  |  |  |  |
| O=C(/C=C/C(=O)Nc1cccc(Cl)c1)NCCCCNc1ccnc2cc(Cl)ccc12 | 45.8% | 75.3% | inactive | 75% | inactive | 27% |  |  |  |
| NC1CCN(C(=O)/C=C/C(=O)NCCCCNc2ccnc3cc(Cl)ccc23)CC1 | 16.2% | 47.2% | 62.6% |  | 13.4% |  | 39.9% | 7% |  |
| O=C(/C=C/C(=O)Nc1cccc(C(F)(F)F)c1)NCCCCNc1cc(C(F)(F)F)nc2c(C(F)(F)F)cccc12 | 13.8% | 22.3% |  |  |  |  |  |  |  |
| CC[C@H]1OC(=O)[C@H](C)[C@@H](O[C@H]2C[C@@](C)(OC)[C@@H](O)[C@H](C)O2)[C@H](C)[C@@H](O[C@@H]2O[C@H](C)C[C@H](N(C)C)[C@H]2O)[C@](C)(O)C[C@@H](C)CN(C)[C@H](C)[C@@H](O)[C@]1(C)O [AZITHROMYCIN] | 85.6% | 90.6% | 86.3% | 90.6% | 67.2% |  | 86.3% |  |  |
| O=C(/C=C/C(=O)Nc1ccc(C(F)(F)F)cc1)NCCCCNc1ccnc2cc(Cl)ccc12 | 27.7% | 85.7% | inactive |  | inactive |  |  |  | inactive |
| O=C(/C=C/C(=O)Nc1cccc(F)c1)NCCCCNc1ccnc2cc(Cl)ccc12 | 27.8% | 79.4% | inactive | 75% | inactive | 27% |  |  | inactive |
| O=C(/C=C/C(=O)Nc1cccc(F)c1)NCCCCNc1cc(C(F)(F)F)nc2c(C(F)(F)F)cccc12 | inactive | 16.9% |  |  |  |  |  |  |  |
| O=C(/C=C/C(=O)NC1CCNCC1)NCCCCNc1ccnc2cc(Cl)ccc12 | 6.5% | 45.9% | 61.6% |  | 10.3% |  | 42.8% | 5.4% |  |
| O=C(/C=C/C(=O)Nc1ccc(C(F)(F)F)cc1)NCCCCNc1cc(C(F)(F)F)nc2c(C(F)(F)F)cccc12 | inactive | inactive |  |  |  |  |  |  |  |
| O=C(/C=C/C(=O)Nc1ccc(F)cc1)NCCCCNc1ccnc2cc(Cl)ccc12 | 39.7% | 87.9% | inactive | 75% | inactive |  |  |  | inactive |
| COc1cc(NC(C)CCCNC(=O)/C=C/C(=O)Nc2ccc(C(F)(F)F)cc2)c2ncccc2c1 (stereo unspecified) | 31.2% | inactive |  |  |  |  |  |  |  |
| CC(C)(C)OC(=O)NC1CCN(C(=O)/C=C/C(=O)NCCCCNc2ccnc3cc(Cl)ccc23)CC1 | 44.6% | 9.1% |  |  |  |  |  |  |  |
| CCN(CC)CCCC(C)Nc1ccnc2cc(Cl)ccc12 (stereo unspecified) [CHLOROQUINE] | 10.1% | 13.2% |  |  |  |  |  |  |  |
| O=C(/C=C/C(=O)Nc1cccc(C(F)(F)F)c1)NCCCCNc1ccnc2cc(Cl)ccc12 | inactive | inactive |  |  |  |  |  |  |  |
| COc1cc(NC(C)CCCNC(=O)/C=C/C(=O)Nc2cccc(Cl)c2)c2ncccc2c1 (stereo unspecified) | 17.9% | inactive |  |  |  |  |  |  |  |
| COc1cc(NC(C)CCCNC(=O)/C=C/C(=O)Nc2cccc(C(F)(F)F)c2)c2ncccc2c1 (stereo unspecified) | 16.4% | inactive |  |  |  |  |  |  | inactive |
| CC(C)(C)OC(=O)NCCNC(=O)/C=C/C(=O)NCCCCNc1ccnc2cc(Cl)ccc12 | 10.7% | 23% |  |  |  |  |  |  |  |
| COc1cc(NC(C)CCCNC(=O)/C=C/C(=O)Nc2cccc(F)c2)c2ncccc2c1 (stereo unspecified) | inactive | inactive |  |  |  |  |  |  |  |
| O=C(/C=C/C(=O)Nc1ccc(Cl)cc1)NCCCCNc1cc(C(F)(F)F)nc2c(C(F)(F)F)cccc12 | inactive | 29.9% |  |  |  |  |  |  |  |
| O=C(/C=C/C(=O)Nc1ccc(F)cc1)NCCCCNc1cc(C(F)(F)F)nc2c(C(F)(F)F)cccc12 | inactive | 29.1% |  |  |  |  |  |  |  |
| O=C(/C=C/C(=O)Nc1ccc(Cl)cc1)NCCCCNc1ccnc2cc(Cl)ccc12 | 56.9% | 85% | inactive |  | inactive | 27% |  |  | inactive |
| Nc1ccc(NC(=O)/C=C/C(=O)NCCCCNc2ccnc3cc(Cl)ccc23)cc1 | 17.5% | 4.7% |  |  |  |  |  |  |  |
| NCCNC(=O)/C=C/C(=O)NCCCCNc1ccnc2cc(Cl)ccc12 | 12.1% | 46.3% | 53.3% |  | 10.3% |  | 52.5% | inactive |  |
| CC(C)(C)OC(=O)Nc1ccc(NC(=O)/C=C/C(=O)NCCCCNc2ccnc3cc(Cl)ccc23)cc1 | 43.7% | inactive |  |  |  |  |  |  |  |
| COc1cc(NC(C)CCCNC(=O)/C=C/C(=O)Nc2ccc(Cl)cc2)c2ncccc2c1 (stereo unspecified) | inactive | inactive |  |  |  |  |  |  |  |
| O=c1c(O)c(-c2ccc(O)c(O)c2)oc2cc(O)cc(O)c12 [QUERCETIN] | 14.7% | 55.8% | 66.8% |  | 17.1% |  |  |  |  |
| COc1cc(NC(C)CCCNC(=O)/C=C/C(=O)Nc2ccc(F)cc2)c2ncccc2c1 (stereo unspecified) | 24.2% | inactive |  |  |  |  |  |  |  |
| CC(C)(C)OC(=O)N1CCC(NC(=O)/C=C/C(=O)NCCCCNc2ccnc3cc(Cl)ccc23)CC1 | 8.3% | inactive |  |  |  |  |  |  |  |
| COc1cc(NC(C)CCCN)c2ncccc2c1 (stereo unspecified) | inactive | inactive | inactive |  | inactive |  |  |  |  |
